Key:
Type in all cases: in vivo, human
[1] = system: serum parathyroid hormone (PTH); test: Phase 1B Dose-Finding Study in Postmenopausal Women: serum PTH in subjects with >60 pg/ml serum PTH at baseline; settings: after 28 days
Experimental: (§1) Reference is made to Zella et al., “Novel, Selective Vitamin D Analog Suppresses Parathyroid Hormone in Uremic Animals and Postmenopausal Women, Am J. Nephrology 2014; 39:476-483, May 17, 2014, the content of which is incorporated herein by reference in its entirety. Zella et al. discloses the results from a Phase 1B Dose-Finding Study in Postmenopausal Women in which the participants were administered various doses of 2MD and afterwards, serum parathyroid hormone (PTH) levels and serum calcium levels were monitored. In Zella et al.'s study, post-menopausal women were treated orally once daily with 2MD, calcitriol, or placebo for 28 days. Serum samples for PTH analysis were collected at baseline and 2, 7, 14, and 28 days after the first dose was administered.
In FIG. 1 of the present application, the results from the Phase 1B Dose-Finding Study in Postmenopausal Women from Zella et al. were plotted using only data from subjects that would be classified as having primary hyperparathyroidism or on a watch list for having primary hyperparathyroidism (i.e., subjects having >60 pg/ml serum PTH at baseline). In FIG. 1, the number of subjects administered each dose of 2MD, calcitriol, or placebo, consisted of the following: 0.05 μg 2MD-2 subjects, 0.11 μg 2MD-3 subjects; 0.17 μg 2MD-4 subjects; 0.44 μg 2MD-2 subjects; 0.5 μg calcitriol-1 subject; and placebo-1 subject. As indicated, PTH levels in the subjects administered 2MD at: doses of 0.11 μg, 0.17 μg, and 0.4 μg decreased over time at a level corresponding, to the dose of 2MD. After 28 days, a dose of 2MD of 0.11 μg, 0.17 μg, and. […] (See FIG. 2 and FIG. 3). In summary, 2MD could be administered orally at a daily dose of 0.11 μg-0.44 μg to treat subjects having primary hyperparathyroidism or at risk, for developing primary hyperparathyroidism.

[2] = Phase 1B Dose-Finding Study in Postmenopausal Women: serum calcium levels; settings: baseline vs 28 days, orally once daily, subjects with >60 pg/ml serum PTH at baseline
Experimental: as §1
(§2) In FIG. 1 of the present application, the results from the Phase 1B Dose-Finding Study in Postmenopausal Women from Zella et al. were plotted using only data from subjects that would be classified as having primary hyperparathyroidism or on a watch list for having primary hyperparathyroidism (i.e., subjects having >60 pg/ml serum PTH at baseline). In FIG. 1, the number of subjects administered each dose of 2MD, calcitriol, or placebo, consisted of the following: 0.05 μg 2MD-2 subjects, 0.11 μg 2MD-3 subjects; 0.17 μg 2MD-4 subjects; 0.44 μg 2MD-2 subjects; 0.5 μg calcitriol-1 subject; and placebo-1 subject. […]

[3] = Phase 1B Dose-Finding Study in Postmenopausal Women: serum phosphate levels; settings: baseline vs 28 days, orally once daily, subjects with >60 pg/ml serum PTH at baseline
Experimental: as §1, §2

C=C1/C(=C\C=C2/CCC[C@]3(C)[C@@H]([C@H](C)CCCC(C)(C)O)CC[C@@H]23)C[C@@H](O)C[C@@H]1O [calcitriol, reference compound]
increase in PTH ([1]; 0.5 μg orally once daily): 15%

C=C1[C@H](O)CC(=C/C=C2\CCC[C@@]3(C)C2CCC3[C@@H](C)CCCC(C)(C)O)C[C@H]1O (stereo partly drawn) [2MD, 2-methylene-19-nor-(20S)-1α,25-dihydroxyvitamin D3]
rise in serum calcium levels [2]: without increasing serum calcium | increase in PTH ([1]; 0.05 μg orally once daily): 16% | decrease in PTH ([1]; 0.11 μg orally once daily): −7% | decrease in PTH ([1]; 0.17 μg orally once daily): −31% | decrease in PTH ([1]; 0.4 μg orally once daily): −44% | rise in serum phosphate levels [3]: without increasing serum calcium or serum phosphate

— US10369161B2, “Use of 2-methylene-19-NOR-(20S)-1-alpha,25-dihydroxyvitamin D3 to treat primary hyperparathyroidism” (Wisconsin Alumni Research Foundation, priority 2014, dated 2019)
